This passage reports T/C results from PubChem BioAssay AID328 (DTP/NCI, 2004).

The experiment concerns BDF1 mice, P388 leukemia ip, median survival T/C. Put plainly: NCI In Vivo Anticancer Drug Screen. Data for tumor model P388 Leukemia (intraperitoneal) in B6D2F1 (BDF1) mice. The note with it: endpoint: median survival time, higher = longer survival. Summed up:
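In tumour-bearing mice, survival after compound treatment is set against the vehicle group and given as a quotient.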

Where [1] appears, read: dose: 100.0 mg/kg/injection, schedule: Q01DX009 (ip), vehicle: saline.
Where [2] appears, read: dose: 200.0 mg/kg/injection, schedule: Q01DX009 (ip), vehicle: saline.
Where [3] appears, read: dose: 20.0 mg/kg/injection, schedule: Q01DX010 (ip), vehicle: saline.
[4] abbreviates: dose: 40.0 mg/kg/injection, schedule: Q01DX010 (ip), vehicle: saline.
Where [5] appears, read: dose: 100.0 mg/kg/injection, schedule: Q01DX009 (ip), vehicle: saline with Tween-80.

Several values for one entry are separate records, joined by “and”; a condition that tells them apart may be missing. Equal values may be shown once. Inconclusive results and toxic doses are left out.

Regarding `C=CN1C(=O)N(C=C)C(C)(CC(C)C)C1=O` (configuration not stated), the T/C runs as follows: (dose: 50.0 mg/kg/injection, schedule: Q04DX003 (ip), vehicle: saline with Tween-80) 104 % of control; (dose: 100.0 mg/kg/injection, schedule: Q04DX003 (ip), vehicle: saline with Tween-80) 109 % of control; (dose: 200.0 mg/kg/injection, schedule: Q04DX003 (ip), vehicle: saline with Tween-80) 100 % of control.

On to `CCOC(=O)C(=NN(C)C)C(=O)OCC`, for which the T/C runs as follows: (dose: 50.0 mg/kg/injection, schedule: Q01DX009 (ip), vehicle: saline) 104 % of control; under setting [1], 92 % of control; under setting [2], 101 % of control.

In the case of `C[C@@H]1C[C@@H]([C@H](O)CC2CC(=O)NC(=O)C2)C(=O)[C@@H](C)C1`, the T/C (dose: 5.0 mg/kg/injection, schedule: Q01DX010 (ip), vehicle: saline) was 100 % of control and 104 % of control; the T/C (dose: 10.0 mg/kg/injection, schedule: Q01DX010 (ip), vehicle: saline) is 90 % of control and 114 % of control; the T/C (dose: 15.0 mg/kg/injection, schedule: Q01DX009 (ip), vehicle: Klucel (hydroxypropylcellulose) (HPC)) is 100 % of control; the T/C under setting [3] is 100 % of control (2×) and 119 % of control; the T/C (dose: 30.0 mg/kg/injection, schedule: Q01DX009 (ip), vehicle: Klucel (hydroxypropylcellulose) (HPC)) is 90 % of control; the T/C (dose: 39.9 mg/kg/injection, schedule: Q04DX003 (ip), vehicle: Klucel (hydroxypropylcellulose) (HPC)) is 114 % of control. For the same compound, the T/C (dose: 39.9 mg/kg/injection, schedule: Q04DX003 (sc), vehicle: Klucel (hydroxypropylcellulose) (HPC)) is 110 % of control; the T/C under setting [4] was 115 % of control and 118 % of control; the T/C (dose: 50.0 mg/kg/injection, schedule: Q04DX003 (ip), vehicle: other) is 121 % of control; the T/C (dose: 60.0 mg/kg/injection, schedule: Q01DX009 (ip), vehicle: Klucel (hydroxypropylcellulose) (HPC)) is 90 % of control; the T/C (dose: 60.0 mg/kg/injection, schedule: Q01DX010 (ip), vehicle: saline) was 168 % of control; the T/C (dose: 60.0 mg/kg/injection, schedule: Q04DX003 (ip), vehicle: Klucel (hydroxypropylcellulose) (HPC)) was 118 % of control. Moreover, the T/C runs as follows: (dose: 64.8 mg/kg/injection, schedule: Q01DX001 (sc), vehicle: Klucel (hydroxypropylcellulose) (HPC)) 108 % of control; (dose: 64.8 mg/kg/injection, schedule: Q04DX003 (ip), vehicle: Klucel (hydroxypropylcellulose) (HPC)) 119 % of control; (dose: 64.8 mg/kg/injection, schedule: Q04DX003 (sc), vehicle: Klucel (hydroxypropylcellulose) (HPC)) 107 % of control; (dose: 100.0 mg/kg/injection, schedule: Q04DX003 (ip), vehicle: other) 178 % of control; (dose: 108.0 mg/kg/injection, schedule: Q01DX001 (ip), vehicle: Klucel (hydroxypropylcellulose) (HPC)) 109 % of control; (dose: 108.0 mg/kg/injection, schedule: Q01DX001 (sc), vehicle: Klucel (hydroxypropylcellulose) (HPC)) 110 % of control. In addition, the T/C (dose: 108.0 mg/kg/injection, schedule: Q04DX003 (ip), vehicle: Klucel (hydroxypropylcellulose) (HPC)) was 118 % of control; the T/C (dose: 108.0 mg/kg/injection, schedule: Q04DX003 (sc), vehicle: Klucel (hydroxypropylcellulose) (HPC)) is 96 % of control; the T/C (dose: 120.0 mg/kg/injection, schedule: Q04DX003 (ip), vehicle: Klucel (hydroxypropylcellulose) (HPC)) was 90 % of control; the T/C (dose: 180.0 mg/kg/injection, schedule: Q01DX001 (ip), vehicle: Klucel (hydroxypropylcellulose) (HPC)) is 108 % of control; the T/C (dose: 180.0 mg/kg/injection, schedule: Q01DX001 (sc), vehicle: Klucel (hydroxypropylcellulose) (HPC)) is 116 % of control; the T/C (dose: 180.0 mg/kg/injection, schedule: Q04DX003 (ip), vehicle: Klucel (hydroxypropylcellulose) (HPC)) was 98 % of control. Further, the T/C reads like this: (dose: 200.0 mg/kg/injection, schedule: Q04DX003 (ip), vehicle: other) 97 % of control; (dose: 300.0 mg/kg/injection, schedule: Q01DX001 (ip), vehicle: Klucel (hydroxypropylcellulose) (HPC)) 114 % of control; (dose: 300.0 mg/kg/injection, schedule: Q01DX001 (sc), vehicle: Klucel (hydroxypropylcellulose) (HPC)) 118 % of control.

With `CC(O)C(NCNC(=O)C1=C(O)C2(O)C(=O)C3=C(O)c4c(O)cccc4C(C)(O)C3CC2C(N(C)C)C1=O)C(=O)O` (configuration not stated), the T/C under setting [5] was 91 % of control; the T/C (dose: 200.0 mg/kg/injection, schedule: Q01DX009 (ip), vehicle: saline with Tween-80) was 100 % of control; the T/C (dose: 400.0 mg/kg/injection, schedule: Q01DX009 (ip), vehicle: saline with Tween-80) was 87 % of control.

With `COC(CN(C)CC(OC)OC)OC`, the T/C is 90 % of control under setting [1]; 100 % of control under setting [2]; 100 % of control (dose: 400.0 mg/kg/injection, schedule: Q01DX009 (ip), vehicle: saline).

`COc1cc2cc(c1Cl)N(C)C(=O)CC(OC(=O)C(C)N(C)C(=O)C(C)C)C1(C)OC1C(C)C1CC(O)(NC(=O)O1)C(OC)/C=C/C=C(C)C2` (configuration not stated): the T/C was 165 % of control (dose: 0.2 micrograms/kg/injection, schedule: Q01DX009 (ip), vehicle: saline + alcohol); 155 % of control (dose: 0.4 micrograms/kg/injection, schedule: Q01DX009 (ip), vehicle: saline + alcohol); 190 % of control (dose: 0.8 micrograms/kg/injection, schedule: Q01DX009 (ip), vehicle: saline + alcohol); 155 % of control (dose: 1.6 micrograms/kg/injection, schedule: Q01DX009 (ip), vehicle: saline + alcohol); 155 % of control (dose: 6.2 micrograms/kg/injection, schedule: Q01DX009 (ip), vehicle: saline + alcohol); 120 % of control (dose: 12.5 micrograms/kg/injection, schedule: Q01DX009 (ip), vehicle: saline + alcohol).

For the compound `O=C(Nc1cccc(C(F)(F)F)c1)C12CC3CC(CC(C3)C1)C2`, the T/C was 92 % of control (dose: 12.5 mg/kg/injection, schedule: Q01DX009 (ip), vehicle: saline with Tween-80); 87 % of control (dose: 50.0 mg/kg/injection, schedule: Q01DX009 (ip), vehicle: saline with Tween-80); 90 % of control under setting [5].

Turning to `CC1(C)N=C(N)N=C(N)N1c1ccc(C(N)=O)cc1`, the T/C (dose: 50.0 mg/kg/injection, schedule: Q01DX005 (ip), vehicle: Klucel (hydroxypropylcellulose) (HPC)) was 109 % of control and the T/C (dose: 100.0 mg/kg/injection, schedule: Q01DX005 (ip), vehicle: Klucel (hydroxypropylcellulose) (HPC)) was 112 % of control.

As to `COc1cc2c(c3c1c(=O)c1cc(O)ccc1n3C)C=CC(C)(C)O2`, the T/C is, setting by setting: (dose: 5.0 mg/kg/injection, schedule: Q01DX009 (ip), vehicle: Klucel (hydroxypropylcellulose) (HPC)) 114 % of control; (dose: 10.0 mg/kg/injection, schedule: Q01DX009 (ip), vehicle: Klucel (hydroxypropylcellulose) (HPC)) 113 % of control; (dose: 20.0 mg/kg/injection, schedule: Q01DX009 (ip), vehicle: Klucel (hydroxypropylcellulose) (HPC)) 112 % of control; (dose: 40.0 mg/kg/injection, schedule: Q01DX009 (ip), vehicle: Klucel (hydroxypropylcellulose) (HPC)) 106 % of control.

Take `CC1NCCNCCNCCNC(C)c2cccc1n2` (configuration not stated): the T/C by setting is: (dose: 6.25 mg/kg/injection, schedule: Q01DX009 (ip), vehicle: saline) 118 % of control; (dose: 12.5 mg/kg/injection, schedule: Q01DX009 (ip), vehicle: saline) 106 % of control; (dose: 25.0 mg/kg/injection, schedule: Q01DX009 (ip), vehicle: saline) 118 % of control.

For `CCN(CC)c1ccc(C(=C(c2ccc(N(CC)CC)cc2)c2ccc(N(CC)CC)cc2)c2ccc(N(CC)CC)cc2)cc1`, the T/C by setting is: (dose: 50.0 mg/kg/injection, schedule: Q04DX003 (ip), vehicle: Klucel (hydroxypropylcellulose) (HPC)) 100 % of control; (dose: 100.0 mg/kg/injection, schedule: Q04DX003 (ip), vehicle: Klucel (hydroxypropylcellulose) (HPC)) 104 % of control; (dose: 200.0 mg/kg/injection, schedule: Q04DX003 (ip), vehicle: Klucel (hydroxypropylcellulose) (HPC)) 90 % of control.

As to `CC(=O)C(C(=O)Nc1ccccc1)c1cc(NS(=O)(=O)c2ccccc2)ccc1O` (configuration not stated), the T/C reads like this: (dose: 100.0 mg/kg/injection, schedule: Q01DX001 (ip), vehicle: saline with Tween-80) 90 % of control; (dose: 200.0 mg/kg/injection, schedule: Q01DX001 (ip), vehicle: saline with Tween-80) 95 % of control; (dose: 400.0 mg/kg/injection, schedule: Q01DX001 (ip), vehicle: saline with Tween-80) 86 % of control.

As for `OCC1OC(n2cnc3c(=S)nc[nH]c32)C(O)C1O` (configuration not stated), the T/C is 90 % of control under setting [3]; 100 % of control under setting [4]; 100 % of control (dose: 80.0 mg/kg/injection, schedule: Q01DX010 (ip), vehicle: saline); 95 % of control (dose: 160.0 mg/kg/injection, schedule: Q01DX010 (ip), vehicle: saline).
